In assay [1] the target is D(4) dopamine receptor (Homo sapiens, UniProt P21917). Kind of assay: GPCRScan assay: inhibition of D4. Further details: radioligand conc. used [nm] 0.6 – 1.7, parental cells Stable HEK.
Assay [2] addresses Muscarinic acetylcholine receptor M3 (Homo sapiens, UniProt P20309). Kind of assay: GPCRScan assay: inhibition of M3. Further details: radioligand conc. used [nm] 0.3 – 1.0, parental cells stable CHO.
The target of assay [3] is Leukocyte tyrosine kinase receptor (Homo sapiens) (UniProt P29376). Kind of assay: LTK(h) Eurofins Kinase panel. The conditions noted are these: Compound concentration 1.0 uM.
Assay [4] has as its target NT-3 growth factor receptor (Homo sapiens) (UniProt Q16288). As to the kind of experiment: TrkC(h) Eurofins Kinase panel. The conditions noted are these: Compound concentration 1.0 uM.
Assay [5] deals with Proto-oncogene tyrosine-protein kinase receptor Ret (Homo sapiens) (UniProt P07949). Kind of assay: Ret(h) Eurofins Kinase panel. The conditions noted are these: Compound concentration 1.0 uM.
Assay [6] has as its target Vascular endothelial growth factor receptor 3 (Homo sapiens) (UniProt P35916). Kind of assay: Flt4(h) Eurofins Kinase panel. The conditions noted are these: Compound concentration 1.0 uM.
In assay [7] the target is Tau-tubulin kinase 1 (Homo sapiens) (UniProt Q5TCY1). Kind of assay: TTBK1(h) Eurofins Kinase panel. The conditions noted are these: Compound concentration 1.0 uM.
Assay [8] addresses Tyrosine-protein kinase Lyn (Homo sapiens) (UniProt P07948). Kind of assay: Lyn(h) Eurofins Kinase panel. The conditions noted are these: Compound concentration 1.0 uM.
In assay [9] the target is Serine/threonine-protein kinase PAK 6 (Homo sapiens) (UniProt Q9NQU5). As to the kind of experiment: PAK6(h) Eurofins Kinase panel. The conditions noted are these: Compound concentration 1.0 uM.
Assay [10] concerns the target T1, Protein kinase C epsilon type (Homo sapiens) (UniProt Q02156).
T1 sequence (whole entry): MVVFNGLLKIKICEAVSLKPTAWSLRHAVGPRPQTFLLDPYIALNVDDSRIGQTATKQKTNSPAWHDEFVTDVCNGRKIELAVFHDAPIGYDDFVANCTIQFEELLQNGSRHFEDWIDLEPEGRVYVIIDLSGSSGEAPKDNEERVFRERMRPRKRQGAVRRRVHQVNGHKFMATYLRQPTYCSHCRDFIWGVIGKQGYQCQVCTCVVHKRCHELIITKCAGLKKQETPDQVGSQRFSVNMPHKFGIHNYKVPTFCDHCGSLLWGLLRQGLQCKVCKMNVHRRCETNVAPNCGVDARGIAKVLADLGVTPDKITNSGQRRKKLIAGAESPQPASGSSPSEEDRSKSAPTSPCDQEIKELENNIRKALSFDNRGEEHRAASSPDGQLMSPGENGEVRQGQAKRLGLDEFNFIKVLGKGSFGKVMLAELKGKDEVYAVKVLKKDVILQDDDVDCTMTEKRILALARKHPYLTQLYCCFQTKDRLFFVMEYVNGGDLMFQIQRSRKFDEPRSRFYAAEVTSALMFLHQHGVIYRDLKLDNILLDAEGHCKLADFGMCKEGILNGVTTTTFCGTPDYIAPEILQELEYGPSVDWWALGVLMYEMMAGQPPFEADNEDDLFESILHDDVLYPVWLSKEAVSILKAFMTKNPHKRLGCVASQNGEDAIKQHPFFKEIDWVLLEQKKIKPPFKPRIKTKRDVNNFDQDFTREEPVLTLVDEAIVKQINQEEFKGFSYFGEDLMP
Kind of assay: PKCepsilon(h) Eurofins Kinase panel. The conditions noted are these: Compound concentration 1.0 uM.

Assay [11] deals with Histamine H2 receptor (Homo sapiens, UniProt P25021). The conditions noted are these: Compound concentration 10.0 uM.
Assay [12] has as its target T2, Muscarinic acetylcholine receptor M1 (Homo sapiens) (UniProt P11229).
T2 sequence (whole entry): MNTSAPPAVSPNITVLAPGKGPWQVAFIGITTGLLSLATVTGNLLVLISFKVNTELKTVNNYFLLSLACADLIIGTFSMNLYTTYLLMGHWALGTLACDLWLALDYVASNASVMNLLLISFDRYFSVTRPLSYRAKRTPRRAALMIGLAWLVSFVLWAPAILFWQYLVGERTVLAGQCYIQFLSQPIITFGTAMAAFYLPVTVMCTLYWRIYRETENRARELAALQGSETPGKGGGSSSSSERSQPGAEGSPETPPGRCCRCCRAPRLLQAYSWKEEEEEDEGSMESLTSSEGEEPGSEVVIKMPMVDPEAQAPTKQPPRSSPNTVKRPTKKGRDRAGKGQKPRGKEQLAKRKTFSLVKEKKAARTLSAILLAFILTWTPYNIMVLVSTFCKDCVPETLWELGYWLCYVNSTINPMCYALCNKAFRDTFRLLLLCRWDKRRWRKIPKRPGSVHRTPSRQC
The conditions noted are these: Compound concentration 10.0 uM.

For assay [13], the target named is Kappa-type opioid receptor (Homo sapiens, UniProt P41145). The conditions noted are these: Compound concentration 10.0 uM.
The target of assay [14] is T3, Mu-type opioid receptor (Homo sapiens, UniProt P35372). The conditions noted are these: Compound concentration 10.0 uM.
In assay [15] the target is T4, Alpha-2B adrenergic receptor (Homo sapiens) (UniProt P18089).
T4 sequence (whole entry): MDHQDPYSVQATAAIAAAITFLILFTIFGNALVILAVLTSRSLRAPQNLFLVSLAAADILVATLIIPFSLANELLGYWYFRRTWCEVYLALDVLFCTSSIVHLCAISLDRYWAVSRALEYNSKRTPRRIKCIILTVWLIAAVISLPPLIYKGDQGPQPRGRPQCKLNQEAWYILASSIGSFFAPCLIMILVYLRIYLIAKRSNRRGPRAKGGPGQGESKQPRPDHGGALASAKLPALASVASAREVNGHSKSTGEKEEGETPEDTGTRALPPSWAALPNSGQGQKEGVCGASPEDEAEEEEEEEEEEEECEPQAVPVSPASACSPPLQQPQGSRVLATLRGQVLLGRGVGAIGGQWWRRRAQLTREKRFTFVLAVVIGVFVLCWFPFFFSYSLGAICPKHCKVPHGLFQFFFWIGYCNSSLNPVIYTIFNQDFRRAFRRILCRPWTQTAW
The conditions noted are these: Compound concentration 10.0 uM.

In assay [16] the target is D(2) dopamine receptor (Homo sapiens, UniProt P14416). The conditions noted are these: Compound concentration 10.0 uM.
In assay [17] the target is T5, 5-hydroxytryptamine receptor 2C (Homo sapiens) (UniProt P28335).
T5 sequence (whole entry): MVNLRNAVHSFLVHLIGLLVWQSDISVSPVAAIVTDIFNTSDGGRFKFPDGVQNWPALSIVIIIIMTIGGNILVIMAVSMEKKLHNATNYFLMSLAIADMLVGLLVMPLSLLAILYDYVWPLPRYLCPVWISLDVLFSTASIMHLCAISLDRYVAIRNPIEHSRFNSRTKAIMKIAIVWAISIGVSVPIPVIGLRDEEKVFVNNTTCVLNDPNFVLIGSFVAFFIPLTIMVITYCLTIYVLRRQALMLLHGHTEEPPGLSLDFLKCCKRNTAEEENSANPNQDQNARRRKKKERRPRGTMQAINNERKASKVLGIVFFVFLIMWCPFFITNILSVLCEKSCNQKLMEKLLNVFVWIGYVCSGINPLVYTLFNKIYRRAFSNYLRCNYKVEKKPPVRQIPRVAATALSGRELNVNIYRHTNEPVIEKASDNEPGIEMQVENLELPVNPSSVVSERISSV
The conditions noted are these: Compound concentration 10.0 uM.

For assay [18], the target named is T3, Mu-type opioid receptor. As to the kind of experiment: GPCRScan assay: inhibition of MOR. The arrangement: radioligand conc. used [nm] 1.0 – 2.0, parental cells stable HEK.

The structures appear in SMILES notation.

T3 sequence (P35372 whole entry): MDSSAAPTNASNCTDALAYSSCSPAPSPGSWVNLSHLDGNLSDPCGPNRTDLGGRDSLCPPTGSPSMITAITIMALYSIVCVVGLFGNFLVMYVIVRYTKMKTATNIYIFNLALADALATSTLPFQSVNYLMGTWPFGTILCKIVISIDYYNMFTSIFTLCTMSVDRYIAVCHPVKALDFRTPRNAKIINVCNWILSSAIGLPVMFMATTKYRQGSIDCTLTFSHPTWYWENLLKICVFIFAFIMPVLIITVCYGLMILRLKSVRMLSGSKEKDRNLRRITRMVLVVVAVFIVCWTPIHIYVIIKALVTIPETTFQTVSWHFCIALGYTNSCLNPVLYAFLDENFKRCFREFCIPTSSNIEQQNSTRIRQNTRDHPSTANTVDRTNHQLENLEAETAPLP
Chain of Muscarinic acetylcholine receptor M3 (P20309 whole entry): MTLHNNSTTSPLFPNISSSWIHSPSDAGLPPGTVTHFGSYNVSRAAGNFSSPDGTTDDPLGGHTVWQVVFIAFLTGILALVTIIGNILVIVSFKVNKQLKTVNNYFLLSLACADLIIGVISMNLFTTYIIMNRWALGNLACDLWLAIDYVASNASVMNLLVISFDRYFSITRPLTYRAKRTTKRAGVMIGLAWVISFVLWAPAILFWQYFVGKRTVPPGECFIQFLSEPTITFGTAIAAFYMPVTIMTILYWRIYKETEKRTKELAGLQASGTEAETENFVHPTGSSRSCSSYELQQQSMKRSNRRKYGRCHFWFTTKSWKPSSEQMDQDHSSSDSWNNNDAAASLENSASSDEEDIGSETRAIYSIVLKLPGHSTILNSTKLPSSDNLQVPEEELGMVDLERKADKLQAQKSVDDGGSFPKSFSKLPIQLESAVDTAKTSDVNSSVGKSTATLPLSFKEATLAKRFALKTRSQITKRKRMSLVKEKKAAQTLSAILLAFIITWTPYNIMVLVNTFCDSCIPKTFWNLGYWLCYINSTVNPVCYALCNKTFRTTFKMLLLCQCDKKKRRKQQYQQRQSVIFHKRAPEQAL
Chain of D(4) dopamine receptor (P21917 whole entry): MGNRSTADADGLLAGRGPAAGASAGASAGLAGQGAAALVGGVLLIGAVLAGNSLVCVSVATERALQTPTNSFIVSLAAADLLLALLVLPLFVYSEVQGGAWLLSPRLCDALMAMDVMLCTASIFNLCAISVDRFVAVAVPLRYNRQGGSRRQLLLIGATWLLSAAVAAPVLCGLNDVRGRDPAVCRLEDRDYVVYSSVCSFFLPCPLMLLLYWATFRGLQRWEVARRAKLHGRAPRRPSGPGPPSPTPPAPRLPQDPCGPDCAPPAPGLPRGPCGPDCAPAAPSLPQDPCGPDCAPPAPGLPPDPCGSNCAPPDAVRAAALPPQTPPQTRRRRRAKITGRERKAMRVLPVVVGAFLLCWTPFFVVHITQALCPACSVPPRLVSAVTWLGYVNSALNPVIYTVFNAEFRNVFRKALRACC
Chain of Proto-oncogene tyrosine-protein kinase receptor Ret (Homo sapiens) (P07949 whole entry): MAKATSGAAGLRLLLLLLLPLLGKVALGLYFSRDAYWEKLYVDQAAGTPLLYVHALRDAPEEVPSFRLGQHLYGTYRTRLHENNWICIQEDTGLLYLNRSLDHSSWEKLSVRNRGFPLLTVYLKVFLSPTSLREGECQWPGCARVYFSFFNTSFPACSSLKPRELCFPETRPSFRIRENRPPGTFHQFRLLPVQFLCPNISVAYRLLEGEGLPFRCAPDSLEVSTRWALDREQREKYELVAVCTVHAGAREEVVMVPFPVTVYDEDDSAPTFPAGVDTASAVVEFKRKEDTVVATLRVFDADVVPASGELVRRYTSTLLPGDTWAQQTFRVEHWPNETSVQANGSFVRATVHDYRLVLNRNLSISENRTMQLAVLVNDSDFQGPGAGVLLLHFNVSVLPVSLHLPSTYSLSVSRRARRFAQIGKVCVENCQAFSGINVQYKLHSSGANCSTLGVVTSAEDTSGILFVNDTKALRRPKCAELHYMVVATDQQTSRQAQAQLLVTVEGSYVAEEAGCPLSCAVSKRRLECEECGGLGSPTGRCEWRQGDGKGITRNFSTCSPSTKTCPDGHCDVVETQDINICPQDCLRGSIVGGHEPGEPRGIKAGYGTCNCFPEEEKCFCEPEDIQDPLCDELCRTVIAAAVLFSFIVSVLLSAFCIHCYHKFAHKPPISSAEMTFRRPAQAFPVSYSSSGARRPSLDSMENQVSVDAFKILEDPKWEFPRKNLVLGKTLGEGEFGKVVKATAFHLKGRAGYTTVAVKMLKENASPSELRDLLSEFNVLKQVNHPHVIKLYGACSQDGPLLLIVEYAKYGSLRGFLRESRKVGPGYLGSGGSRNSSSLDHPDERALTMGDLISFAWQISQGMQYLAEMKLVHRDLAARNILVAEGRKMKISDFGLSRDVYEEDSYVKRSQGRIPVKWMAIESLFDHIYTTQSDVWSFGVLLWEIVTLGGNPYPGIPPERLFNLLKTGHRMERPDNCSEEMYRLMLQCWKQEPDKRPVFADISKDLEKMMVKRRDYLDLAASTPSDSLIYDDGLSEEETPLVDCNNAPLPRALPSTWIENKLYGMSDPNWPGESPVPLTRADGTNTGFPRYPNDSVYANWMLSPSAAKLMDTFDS
Chain of Tau-tubulin kinase 1 (Homo sapiens) (Q5TCY1 whole entry): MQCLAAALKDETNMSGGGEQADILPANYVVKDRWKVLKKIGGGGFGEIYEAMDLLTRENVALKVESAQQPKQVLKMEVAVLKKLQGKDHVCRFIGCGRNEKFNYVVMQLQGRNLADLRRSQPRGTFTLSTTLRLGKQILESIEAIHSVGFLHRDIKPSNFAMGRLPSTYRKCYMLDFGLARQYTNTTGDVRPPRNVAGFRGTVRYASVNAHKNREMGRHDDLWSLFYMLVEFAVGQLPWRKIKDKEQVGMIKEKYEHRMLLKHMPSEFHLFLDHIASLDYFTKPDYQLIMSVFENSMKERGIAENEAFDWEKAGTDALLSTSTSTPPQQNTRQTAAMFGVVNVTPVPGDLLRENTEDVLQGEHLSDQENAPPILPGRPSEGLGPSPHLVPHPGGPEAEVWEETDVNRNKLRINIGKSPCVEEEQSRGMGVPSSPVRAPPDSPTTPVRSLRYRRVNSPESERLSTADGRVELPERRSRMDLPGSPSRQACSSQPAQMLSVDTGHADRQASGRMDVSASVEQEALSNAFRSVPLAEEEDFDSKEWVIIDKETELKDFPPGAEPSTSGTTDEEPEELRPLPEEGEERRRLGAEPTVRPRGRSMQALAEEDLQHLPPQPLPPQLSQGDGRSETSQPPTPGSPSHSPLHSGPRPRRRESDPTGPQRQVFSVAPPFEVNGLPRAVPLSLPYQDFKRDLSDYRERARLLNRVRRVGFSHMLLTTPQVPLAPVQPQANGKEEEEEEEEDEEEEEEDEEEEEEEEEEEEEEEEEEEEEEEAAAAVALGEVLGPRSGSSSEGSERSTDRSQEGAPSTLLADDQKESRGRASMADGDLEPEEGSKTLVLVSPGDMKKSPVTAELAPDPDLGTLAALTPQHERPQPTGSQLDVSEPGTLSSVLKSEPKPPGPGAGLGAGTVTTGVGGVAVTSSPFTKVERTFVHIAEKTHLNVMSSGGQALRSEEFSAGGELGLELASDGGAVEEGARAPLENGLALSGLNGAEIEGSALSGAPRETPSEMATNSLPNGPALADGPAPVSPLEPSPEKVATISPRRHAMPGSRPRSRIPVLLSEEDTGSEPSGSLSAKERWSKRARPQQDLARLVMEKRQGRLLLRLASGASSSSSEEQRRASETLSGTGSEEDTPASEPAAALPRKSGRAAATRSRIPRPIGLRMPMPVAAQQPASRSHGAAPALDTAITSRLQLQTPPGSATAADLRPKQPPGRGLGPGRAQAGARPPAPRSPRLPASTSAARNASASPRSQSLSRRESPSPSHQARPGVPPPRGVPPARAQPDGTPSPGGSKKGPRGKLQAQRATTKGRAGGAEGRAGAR
Chain of Leukocyte tyrosine kinase receptor (Homo sapiens) (P29376 whole entry): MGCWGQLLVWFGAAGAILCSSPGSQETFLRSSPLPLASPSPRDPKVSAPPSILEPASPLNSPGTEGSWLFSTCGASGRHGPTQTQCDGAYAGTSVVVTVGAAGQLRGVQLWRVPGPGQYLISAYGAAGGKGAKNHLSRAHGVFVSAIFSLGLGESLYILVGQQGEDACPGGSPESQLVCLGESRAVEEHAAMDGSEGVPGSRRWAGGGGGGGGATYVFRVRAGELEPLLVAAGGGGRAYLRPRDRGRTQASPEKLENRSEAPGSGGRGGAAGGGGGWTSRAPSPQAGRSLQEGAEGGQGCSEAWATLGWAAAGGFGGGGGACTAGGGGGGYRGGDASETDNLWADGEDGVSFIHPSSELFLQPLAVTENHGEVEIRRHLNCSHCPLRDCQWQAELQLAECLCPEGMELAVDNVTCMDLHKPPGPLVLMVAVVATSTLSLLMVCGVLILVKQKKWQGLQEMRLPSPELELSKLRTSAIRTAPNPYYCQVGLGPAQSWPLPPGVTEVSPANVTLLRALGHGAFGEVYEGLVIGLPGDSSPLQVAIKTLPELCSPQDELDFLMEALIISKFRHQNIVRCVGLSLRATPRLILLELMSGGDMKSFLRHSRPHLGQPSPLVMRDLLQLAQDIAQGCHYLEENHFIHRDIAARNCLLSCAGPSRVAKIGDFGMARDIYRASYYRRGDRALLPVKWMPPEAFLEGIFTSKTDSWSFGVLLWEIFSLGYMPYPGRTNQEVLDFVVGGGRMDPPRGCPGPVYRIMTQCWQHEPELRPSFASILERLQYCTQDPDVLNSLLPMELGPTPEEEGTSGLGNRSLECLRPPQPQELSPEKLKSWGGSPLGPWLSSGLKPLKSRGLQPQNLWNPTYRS
Chain of Histamine H2 receptor (P25021 whole entry): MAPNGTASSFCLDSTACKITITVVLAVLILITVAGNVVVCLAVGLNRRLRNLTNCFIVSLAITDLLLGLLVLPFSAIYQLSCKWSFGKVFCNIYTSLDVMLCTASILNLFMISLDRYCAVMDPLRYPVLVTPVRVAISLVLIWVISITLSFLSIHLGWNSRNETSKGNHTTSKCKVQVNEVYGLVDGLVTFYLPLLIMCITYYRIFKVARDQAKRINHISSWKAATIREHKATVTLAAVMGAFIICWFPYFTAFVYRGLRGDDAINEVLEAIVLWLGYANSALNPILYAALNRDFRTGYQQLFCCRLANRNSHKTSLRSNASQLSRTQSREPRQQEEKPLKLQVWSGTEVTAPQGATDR

What is called inhibition is the change of the read-out against control, counted positive when it falls. Take `CNCc1ccccc1-c1csc([C@@H](C)Nc2nc(C)nc3cc(OC)c(OC)cc23)c1` [BAY-293]: the Ki in assay [1] (read-out: Ki) was 2660 nM; in assay [1] (read-out: pKi (converted)) it was 2630 nM; in assay [2] (read-out: Ki), 972 nM; in [2] (read-out: pKi (converted)), 955 nM. Besides, the % residual kinase activity in assay [3] is 75%; in assay [4], 80%; in assay [5], 81%; in assay [6], 82%; in [7], 87%; in assay [8], 88%. For the same compound, the % residual kinase activity in assay [9] and in [10] was 88% in each case. In addition, the inhibition in [11] was 99%; in [12] it was 94%; in assay [13] it was 105%; in assay [14], 93%; in [15] it was 85%; in assay [16] it was 67%. For the same compound, the inhibition in assay [17] is 104%.
In the case of `CNCc1ccccc1-c1csc([C@H](C)Nc2nc(C)nc3cc(OC)c(OC)cc23)c1` [BAY-294], the figures for the Ki in assay [18] (read-out: Ki) and in assay [18] (read-out: pKi (converted)) were 854 nM and 759 nM, respectively.
